≈ marks a conversion by molar mass, not a printed value.
How the values were obtained:
Type in all cases: physicochemical
[1] = Particle size of jet milled ZGN-440; settings: for D10 / D50 / D90: after jet milling
Experimental: (§1) Jet milling was conducted with ZGN-440 having an initial D90 of 211.9 μm prior to jet milling.
(§2) For FPS5, jet milled ZGN-440 was recovered in greater than 90% yield. […] The particle size generated is suitable for use with a 29-gauge to 31-gauge needle.

[2] = Polymorphic form / crystallinity after suspension, jet milling or microfluidization (XRPD); settings: for crystallinity and polymorphic form after jet milling: XRPD
Experimental: The following processes may be used to prepare an appropriate particle size of ZGN-440 (i) microfluidization; (ii) jet milling; (iii) ball milling; and suspension homogenization.
as §1, §2

Storage of Form C = settings: about three days of storage at either 5° C. or ambient temperature
Excerpt: In other embodiments, Form C of 6-O-(4-dimethylaminoethoxy)cinnamoyl fumagillol, free base has an IR absorption spectrum having characteristic peaks at about at least one of: 831, 894, 1106, 1159, 1249, 1287, 1512, 1602, 1631, and 1707 cm^−1. In this context, the term “about” means that the cm^−1 values can vary, e.g. up to ±5 cm^−1. In certain embodiments, Form C of 6-O-(4-dimethylaminoethoxy)cinnamoyl fumagillol, free base is characterized by the IR absorption spectrum shown in FIG. 15 of U.S. Pat. No. 8,349,891, U.S. Pat. No. 8,735,447, and WO 2012/064838. […] Accordingly, in certain embodiments, the compositions described herein can include Form C and/or Form A derived from Form C.

physchem = test: physchem
Excerpt: In some embodiments, the crystalline form of Form A 6-O-(4-dimethylaminoethoxy) cinnamoyl fumagillol, free base has an IR absorption spectrum having at least one or more characteristic peaks at about 2971, 2938, 2817, 2762, 1163, 1103, 832 cm^−1. In this context, the term “about” means that the cm^−1 values can vary, e.g., up to ±5 cm^−1. In certain embodiments, the crystalline form of Form A 6-O-(4-dimethylaminoethoxy)cinnamoyl fumagillol has IR absorption spectrum shown in FIG. 5 of U.S. Pat. No. 8,349,891, U.S. Pat. No. 8,735,447, and WO 2012/064838. In some embodiments, the crystalline form (e.g., Form A) of Form A 6-O-(4-dimethylaminoethoxy)cinnamoyl fumagillol, free base is characterized by a melting point of about 83° C., for example, and characterized by a differential scanning calorimetry profile with an endotherm at about 83.1° C. […] The solubility of Form A in solvent (e.g., an aqueous solution that may include a buffer) with a pH greater or equal to about 8.0 may be less than about 0.2 mg/mL at ca. 20° C.

D10 [1] [µm]	D50 [1] [µm]	D90 [1] [µm]	SMILES	crystallinity and polymorphic form after jet milling [2]	further results
1.1	2.4	5.2	CO[C@@H]1[C@H](OC(=O)/C=C/c2ccc(OCCN(C)C)cc2)CC[C@]2(CO2)[C@H]1[C@@]1(C)O[C@@H]1CC=C(C)C [FPS/1]		
1.1	3	6.9	CO[C@@H]1[C@H](OC(=O)/C=C/c2ccc(OCCN(C)C)cc2)CC[C@]2(CO2)[C@H]1[C@@]1(C)O[C@@H]1CC=C(C)C [FPS/2]		
1.2	3.9	9.5	CO[C@@H]1[C@H](OC(=O)/C=C/c2ccc(OCCN(C)C)cc2)CC[C@]2(CO2)[C@H]1[C@@]1(C)O[C@@H]1CC=C(C)C [FPS/3]		
1.5	6.5	13.2	CO[C@@H]1[C@H](OC(=O)/C=C/c2ccc(OCCN(C)C)cc2)CC[C@]2(CO2)[C@H]1[C@@]1(C)O[C@@H]1CC=C(C)C [FPS/4]		
1.2	6.1	14.3	CO[C@@H]1[C@H](OC(=O)/C=C/c2ccc(OCCN(C)C)cc2)CC[C@]2(CO2)[C@H]1[C@@]1(C)O[C@@H]1CC=C(C)C [FPS/5]	crystalline and the desired polymorph	
			CO[C@@H]1[C@H](OC(=O)/C=C/c2ccc(OCCN(C)C)cc2)CC[C@]2(CO2)[C@H]1[C@@]1(C)O[C@@H]1CC=C(C)C [Form C, 6-O-(4-dimethylaminoethoxy) cinnamoyl fumagillol]		conversion of crystalline form on storage (Storage of Form C): converts or reverts to Form A
1.7	9.4	25.1	CO[C@@H]1[C@H](OC(=O)/C=C/c2ccc(OCCN(C)C)cc2)CC[C@]2(CO2)[C@H]1[C@@]1(C)O[C@@H]1CC=C(C)C [NAT]	retained its crystallinity and polymorphic form	
			CO[C@@H]1[C@H](OC(=O)/C=C/c2ccc(OCCN(C)C)cc2)CC[C@]2(CO2)[C@H]1[C@@]1(C)O[C@@H]1CC=C(C)C [ZGN-440, 6-O-(4-dimethylaminoethoxy) cinnamoyl fumagillol]	retains its crystallinity and its polymorphic structure	initial D90 ([1]; prior to jet milling): 211.9 μm; polymorphic form ([2]; suspended in different aqueous diluents (e.g., for extended times) or jet milled or microfluidized): no change in the polymorphic form; solubility (physchem; 20 °C, organic solvent or mixture): ~25 mg/mL (≈ 50 mM); solubility (physchem; 20 °C, pH 8, aqueous buffer): < 0.2 mg/mL; solubility (physchem; 50 °C, organic solvent or mixture): ~102 mg/mL (≈ 204 mM)

Reference: patent publication US20170273932A1, “LYOPHILIZED COMPOSITIONS CONTAINING A METAP-2 INHIBITOR” (Zafgen, Inc., priority 2014, published 2017)
